Laboratory results: patent US11000033B2, “Ketone or oxime compound, and herbicide” (NISSAN CHEMICAL CORPORATION, priority 2014, dated 2021)

How the values were obtained:
Type in all cases: in vivo
Leptochloa chinensis = assay: Test Example 3: herbicidal effect by foliage application, Wagner pot (symbol D); conditions: application herbicide amount 320 g/ha
Method in brief: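 Foliar spray of water-diluted emulsion formulation at a predetermined herbicide amount onto 14-day-old plants in flooded alluvial soil (water depth 0.1–0.5 cm), greenhouse 25–30 °C; rice sown alongside. Scored 3 wk post-application on set criteria.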

[1] = system: Echinochloa crus-galli var. crus-galli; assay: Test Example 4: herbicidal effect by soil treatment (symbol H); conditions: application herbicide amount 320 g/ha
Method in brief: (§1)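 Seeds were sown in sterilized diluvial soil, covered with about 1.5 cm of soil, and the soil surface was sprayed with a water-diluted emulsion of the compound at a predetermined rate. Plants grew in a greenhouse at 25° C. to 30° C.; effects were scored visually 3 weeks after application.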

[2] = system: Echinochloa oryzacola Vasing.; assay: Test Example 2: herbicidal activity, application during weed generation in submerged conditions (symbol A); conditions: Table 23; application herbicide amount 320 g/ha; grade 0-5 by criteria of Test Example 1
Method in brief: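 Paddy pot test, submerged (4 cm water), alluvial soil, mixed sowing; greenhouse 25–30° C. Emulsion formulation diluted to predetermined rate, applied onto floodwater at 1–2 leaf stage. Visual herbicidal rating at 3 wk post-treatment.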

transplanted rice plant = assay: Test Example 1: effect on crop, application before weed generation in submerged conditions (symbol a); conditions: application herbicide amount 320 g/ha
Method in brief: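 Rice at 2.5 leaf stage transplanted into submerged soil (4 cm depth) sown with three weed species; herbicide applied before weed emergence.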

Avena fatua [3] = assay: Test Example 4: herbicidal effect by soil treatment (symbol I); conditions: application herbicide amount 320 g/ha
Method in brief: as §1

Lolium multiflorum Lam. = assay: Test Example 4: herbicidal effect by soil treatment (symbol K); conditions: application herbicide amount 320 g/ha
Method in brief: as §1

Digitaria ciliaris = assay: Test Example 4: herbicidal effect by soil treatment (symbol F); conditions: application herbicide amount 320 g/ha
Method in brief: as §1

Chenopodium album [4] = assay: Test Example 4: herbicidal effect by soil treatment (symbol O); conditions: application herbicide amount 320 g/ha
Method in brief: as §1

Chenopodium album [5] = assay: Test Example 5: herbicidal effect by foliage application, plastic box (symbol O); conditions: 320 g/ha, 3 weeks after application
Method in brief: (§2)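 Emulsion formulation, diluted with water to the intended rate, was applied uniformly to leaves by small sprayer. Recipients were 14-day greenhouse-grown seedlings (25° C. to 30° C.). Assessment followed at 3 weeks.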

Veronica persica [6] = assay: Test Example 4: herbicidal effect by soil treatment (symbol R); conditions: application herbicide amount 320 g/ha
Method in brief: as §1

corn = assay: Test Example 5: effect on crop by foliage application, plastic box (symbol c); conditions: 320 g/ha, 3 weeks after application
Method in brief: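 Sterilized diluvial soil, plastic box (21 × 13 × 7 cm); spot sowing, ~1.5 cm soil cover; greenhouse 25–30° C.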

Setaria viridis = assay: Test Example 5: herbicidal effect by foliage application, plastic box (symbol G); conditions: 320 g/ha, 3 weeks after application
Method in brief: as §2

Veronica persica [7] = assay: Test Example 5: herbicidal effect by foliage application, plastic box (symbol R); conditions: 320 g/ha, 3 weeks after application
Method in brief: as §2

Avena fatua [8] = assay: Test Example 5: herbicidal effect by foliage application, plastic box (symbol I); conditions: 320 g/ha, 3 weeks after application
Method in brief: as §2

Compound | herbicidal effect on D (Leptochloa chinensis), grade 0-5 (Leptochloa chinensis) | Herbicidal effect grade, H: Echinochloa crus-galli var. crus-galli [1] | Herbicidal effect grade, A: Echinochloa oryzacola Vasing. [2] | Effect grade on crop, a: transplanted rice plant (transplanted rice plant) | Herbicidal effect grade, I: Avena fatua (Avena fatua [3]) | Herbicidal effect grade, K: Lolium multiflorum Lam. (Lolium multiflorum Lam.) | Herbicidal effect grade, F: Digitaria ciliaris (Digitaria ciliaris) | Herbicidal effect grade, O: Chenopodium album (Chenopodium album [4]) | O: Chenopodium album, herbicidal effect (criteria of Test Example 1) (Chenopodium album [5]) | Herbicidal effect grade, R: Veronica persica (Veronica persica [6]) | c: corn, effect on crop (criteria of Test Example 1) (corn) | G: Setaria viridis, herbicidal effect (criteria of Test Example 1) (Setaria viridis) | R: Veronica persica, herbicidal effect (criteria of Test Example 1) (Veronica persica [7]) | I: Avena fatua, herbicidal effect (criteria of Test Example 1) (Avena fatua [8]) | H: Echinochloa crus-galli var. crus-galli, herbicidal effect grade [1] | I: Avena fatua, herbicidal effect grade (Avena fatua [3]) | K: Lolium multiflorum Lam., herbicidal effect grade (Lolium multiflorum Lam.) | F: Digitaria ciliaris, herbicidal effect grade (Digitaria ciliaris) | O: Chenopodium album, herbicidal effect grade (Chenopodium album [4]) | R: Veronica persica, herbicidal effect grade (Veronica persica [6])
CON=C(C)CC1CC(O)=C(c2c(C)cc(-c3ccc(F)c(Cl)c3)cc2C)C1=O (stereo not shown) [6-085] | 5 (Herbicidal ratio of 90% or more (almost completely withered)) | 5 (Herbicidal ratio of 90% or more (almost completely withered)) | 5 (Herbicidal ratio of 90% or more (almost completely withered)) | 5 (Herbicidal ratio of 90% or more (almost completely withered)) | 5 (Herbicidal ratio of 90% or more (almost completely withered)) | 5 (Herbicidal ratio of 90% or more (almost completely withered)) | 5 (Herbicidal ratio of 90% or more (almost completely withered)) | 5 (Herbicidal ratio of 90% or more (almost completely withered)) | 5 (Herbicidal ratio of 90% or more (almost completely withered)) | 4 (Herbicidal ratio of 70% or higher and lower than 90%) | 3 (Herbicidal ratio of 40% or higher and lower than 70%) | 5 (Herbicidal ratio of 90% or more (almost completely withered)) | 4 (Herbicidal ratio of 70% or higher and lower than 90%) | 5 (Herbicidal ratio of 90% or more (almost completely withered)) | – | – | – | – | – | –
CON=C(C)CC1CC(OC(=O)COc2ccccc2)=C(c2c(C)cc(C)cc2OC)C1=O (stereo not shown) [6-091] | 5 (Herbicidal ratio of 90% or more (almost completely withered)) | 5 (Herbicidal ratio of 90% or more (almost completely withered)) | 5 (Herbicidal ratio of 90% or more (almost completely withered)) | 5 (Herbicidal ratio of 90% or more (almost completely withered)) | 5 (Herbicidal ratio of 90% or more (almost completely withered)) | 5 (Herbicidal ratio of 90% or more (almost completely withered)) | 5 (Herbicidal ratio of 90% or more (almost completely withered)) | 3 (Herbicidal ratio of 40% or higher and lower than 70%) | 3 (Herbicidal ratio of 40% or higher and lower than 70%) | 4 (Herbicidal ratio of 70% or higher and lower than 90%) | 5 (Herbicidal ratio of 90% or more (almost completely withered)) | 5 (Herbicidal ratio of 90% or more (almost completely withered)) | 4 (Herbicidal ratio of 70% or higher and lower than 90%) | 5 (Herbicidal ratio of 90% or more (almost completely withered)) | – | – | – | – | – | –
CON=C(C)CC1CC(O)=C(c2c(C)cc(-c3ccc(Cl)cc3F)cc2C)C1=O (stereo not shown) [6-084] | 5 (Herbicidal ratio of 90% or more (almost completely withered)) | – | 4 (Herbicidal ratio of 70% or higher and lower than 90%) | 5 (Herbicidal ratio of 90% or more (almost completely withered)) | – | – | – | – | 4 (Herbicidal ratio of 70% or higher and lower than 90%) | – | 0 (Herbicidal ratio of 5% or lower (almost no effect)) | 5 (Herbicidal ratio of 90% or more (almost completely withered)) | 4 (Herbicidal ratio of 70% or higher and lower than 90%) | 5 (Herbicidal ratio of 90% or more (almost completely withered)) | 5 (Herbicidal ratio of 90% or more (almost completely withered)) | 5 (Herbicidal ratio of 90% or more (almost completely withered)) | 5 (Herbicidal ratio of 90% or more (almost completely withered)) | 5 (Herbicidal ratio of 90% or more (almost completely withered)) | 3 (Herbicidal ratio of 40% or higher and lower than 70%) | 4 (Herbicidal ratio of 70% or higher and lower than 90%)
COc1ccc(-c2cc(C)c(C3=C(O)CC(CC(C)=O)C3=O)c(C)c2)cc1 (stereo not shown) [7-006] | 5 (Herbicidal ratio of 90% or more (almost completely withered)) | 0 (Herbicidal ratio of 5% or lower (almost no effect)) | 2 (Herbicidal ratio of 20% or higher and lower than 40%) | 2 (Herbicidal ratio of 20% or higher and lower than 40%) | 0 (Herbicidal ratio of 5% or lower (almost no effect)) | 2 (Herbicidal ratio of 20% or higher and lower than 40%) | 0 (Herbicidal ratio of 5% or lower (almost no effect)) | 0 (Herbicidal ratio of 5% or lower (almost no effect)) | 3 (Herbicidal ratio of 40% or higher and lower than 70%) | 0 (Herbicidal ratio of 5% or lower (almost no effect)) | 4 (Herbicidal ratio of 70% or higher and lower than 90%) | 5 (Herbicidal ratio of 90% or more (almost completely withered)) | 0 (Herbicidal ratio of 5% or lower (almost no effect)) | 3 (Herbicidal ratio of 40% or higher and lower than 70%) | – | – | – | – | – | –
CON=C(C)CC1CC(OCOC(=O)c2ccccc2)=C(c2c(C)cc(-c3ccc(Cl)cc3)cc2C)C1=O (stereo not shown) [6-083] | 5 (Herbicidal ratio of 90% or more (almost completely withered)) | – | 5 (Herbicidal ratio of 90% or more (almost completely withered)) | 5 (Herbicidal ratio of 90% or more (almost completely withered)) | – | – | – | – | 5 (Herbicidal ratio of 90% or more (almost completely withered)) | – | 5 (Herbicidal ratio of 90% or more (almost completely withered)) | 5 (Herbicidal ratio of 90% or more (almost completely withered)) | 4 (Herbicidal ratio of 70% or higher and lower than 90%) | 5 (Herbicidal ratio of 90% or more (almost completely withered)) | 0 (Herbicidal ratio of 5% or lower (almost no effect)) | 0 (Herbicidal ratio of 5% or lower (almost no effect)) | 1 (Herbicidal ratio of 5% or higher and lower than 20%) | 5 (Herbicidal ratio of 90% or more (almost completely withered)) | 0 (Herbicidal ratio of 5% or lower (almost no effect)) | 3 (Herbicidal ratio of 40% or higher and lower than 70%)
